{
  "source": "patent US6706663B2",
  "about": "“Herbicidal 3-heterocyclic substituted benzisothiazole and benzisoxazole compounds” (Wyeth, priority 2000, dated 2004)",
  "key": {"[1]": {"test_system": "ABUTH (Abutilon theophrasti)", "assay": "Postemergence herbicidal evaluation", "type": "in vivo, Medic.", "how_it_was_run": "(§1)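 Visual 0–9 injury scores versus control plants, covering stand, vigour, malformation, size, chlorosis and general appearance, taken four to five weeks post-spray and averaged over replicate tests. Plants were sprayed at roughly two weeks old and held on greenhouse benches.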"}, "[2]": {"test_system": "AMBEL (Ambrosia artemisifolia)", "assay": "Postemergence herbicidal evaluation", "type": "in vivo, L.", "how_it_was_run": "as §1"}, "[3]": {"test_system": "CASOB (Cassia obtusifolia)", "assay": "Postemergence herbicidal evaluation", "type": "in vivo, L.", "how_it_was_run": "as §1"}, "[4]": {"test_system": "CHEAL (Chenopodium album)", "assay": "Postemergence herbicidal evaluation", "type": "in vivo, L.", "how_it_was_run": "as §1"}, "[5]": {"test_system": "IPOHE (Ipomoea hederacea)", "assay": "Postemergence herbicidal evaluation", "type": "in vivo, (L.) Jacq.", "how_it_was_run": "as §1"}, "[6]": {"test_system": "GLXMAW (Soybean, Williams)", "assay": "Postemergence herbicidal evaluation", "type": "in vivo, Glycine max, (L.) Merr. cv Williams", "how_it_was_run": "as §1"}, "ORYSAT (Rice, Tebonnet) [7]": {"test_system": "ORYSAT (Rice, Tebonnet)", "assay": "Postemergence herbicidal evaluation", "type": "in vivo, Oryza sativa, (L.) Tebonnet", "how_it_was_run": "as §1"}, "[8]": {"test_system": "ABUTH (Abutilon theophrasti)", "assay": "Preemergence herbicidal evaluation", "type": "in vivo, Medic.", "conditions": "rated 4-5 weeks after treatment"}, "[9]": {"test_system": "AMBEL (Ambrosia artemisifolia)", "assay": "Preemergence herbicidal evaluation", "type": "in vivo, L.", "conditions": "rated 4-5 weeks after treatment", "how_it_was_run": "(§2)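 Visual 0-9 rating versus untreated control, taken four to five weeks post-treatment, scoring stand, vigor, malformation, size, chlorosis and overall appearance. Compound applied as aqueous acetone spray to freshly seeded soil cups, then kept under standard greenhouse care.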"}, "[10]": {"test_system": "CASOB (Cassia obtusifolia)", "assay": "Preemergence herbicidal evaluation", "type": "in vivo, L.", "conditions": "preemergence, rated 4-5 weeks after treatment", "how_it_was_run": "as §2"}, "[11]": {"test_system": "CHEAL (Chenopodium album)", "assay": "Preemergence herbicidal evaluation", "type": "in vivo, L.", "conditions": "rated 4-5 weeks after treatment", "how_it_was_run": "as §2"}, "[12]": {"test_system": "IPOHE (Ipomoea hederacea)", "assay": "Preemergence herbicidal evaluation", "type": "in vivo, (L.) Jacq.", "conditions": "rated 4-5 weeks after treatment"}, "[13]": {"test_system": "ECHCG (Echinochloa crus-galli)", "assay": "Preemergence herbicidal evaluation", "type": "in vivo, (L.) Beau", "conditions": "rated 4-5 weeks after treatment", "how_it_was_run": "as §2"}, "SETVI (Setaria viridis)": {"test_system": "SETVI (Setaria viridis)", "assay": "Preemergence herbicidal evaluation", "type": "in vivo, (L.) Beau", "conditions": "rated 4-5 weeks after treatment", "how_it_was_run": "as §2"}, "[14]": {"test_system": "GLXMAW (Soybean, Williams)", "assay": "Preemergence herbicidal evaluation", "type": "in vivo, Glycine max, (L.) Merr. cv Williams", "conditions": "rated 4-5 weeks after treatment"}, "[15]": {"test_system": "TRZAWR (Wheat, Winter, cv Riband)", "assay": "Preemergence herbicidal evaluation", "type": "in vivo, Triticum aestivum", "conditions": "rated 4-5 weeks after treatment", "how_it_was_run": "as §2"}, "ZEAMX (Corn, Field)": {"test_system": "ZEAMX (Corn, Field)", "assay": "Preemergence herbicidal evaluation", "type": "in vivo, Zea mays, L.", "conditions": "rated 4-5 weeks after treatment"}, "CYPIR (Cyperus iria)": {"test_system": "CYPIR (Cyperus iria)", "assay": "Flooded paddy, preemergence weed control", "type": "in vivo", "conditions": "rated 3-4 weeks after treatment, 0-9 rating scale", "how_it_was_run": "(§3)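 Under paddy conditions, seeds or vegetative propagules go into the top 0.5 cm of silt loam; the soil is then flooded to 1.5–3 cm and kept so. Treated pots stay in a greenhouse; response is rated 0-9 visually versus control.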"}, "[16]": {"test_system": "MOOVA (Monochoria vaginalis)", "assay": "Flooded paddy, preemergence weed control", "type": "in vivo, Presl.", "conditions": "rated 3-4 weeks after treatment, 0-9 rating scale", "how_it_was_run": "as §3"}, "ORYSAT (Rice, Tebonnet) [17]": {"test_system": "ORYSAT (Rice, Tebonnet)", "assay": "Flooded paddy, post-transplant rice tolerance", "type": "in vivo, Oryza sativa, (L.) Tebonnet", "conditions": "flooded paddy, post-transplant rice, rated 3-4 weeks after treatment, 0-9 rating scale", "how_it_was_run": "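Seedlings aged ten days are transplanted in pairs into undrained pots of silt loam, which are then flooded to a depth of 1.5 to 3 cm. After herbicide application the pots are kept in a greenhouse with the flood maintained. Plants are rated 0-9 by visual comparison with controls.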"}},
  "data": [
    {"smiles": "C#CCOC(=O)COc1ccsc1-c1nsc2ccc(-n3c(=O)cc(C(F)(F)F)n(C)c3=O)cc12", "note": "[Compound 39, 2-propynyl [[2-[5-[3,6-dihydro-3-methyl-2,6-dioxo-4-(trifluoromethyl)-1(2H)-pyrimidinyl]-1,2-benzisothiazol-3-yl]-3-thienyl]oxy]acetate]", "values": [
      {"measurement": "Postemergence herbicidal rating, ABUTH", "setting": "[1]; rate 0.0320 kg/ha", "result": 2.0},
      {"measurement": "Postemergence herbicidal rating, ABUTH", "setting": "[1]; rate 0.0620 kg/ha", "result": 9.0},
      {"measurement": "Postemergence herbicidal rating, AMBEL", "setting": "[2]; rate 0.0320 kg/ha", "result": 3.0},
      {"measurement": "Postemergence herbicidal rating, AMBEL", "setting": "[2]; rate 0.0620 kg/ha", "result": 3.0},
      {"measurement": "Postemergence herbicidal rating, CASOB", "setting": "[3]; rate 0.0320 kg/ha", "result": 0.0},
      {"measurement": "Postemergence herbicidal rating, CASOB", "setting": "[3]; rate 0.0620 kg/ha", "result": 0.0},
      {"measurement": "Postemergence herbicidal rating, CHEAL", "setting": "[4]; rate 0.0320 kg/ha", "result": 0.0},
      {"measurement": "Postemergence herbicidal rating, CHEAL", "setting": "[4]; rate 0.0620 kg/ha", "result": 4.0},
      {"measurement": "Postemergence herbicidal rating, IPOHE", "setting": "[5]; rate 0.0320 kg/ha", "result": 4.0},
      {"measurement": "Postemergence herbicidal rating, IPOHE", "setting": "[5]; rate 0.0620 kg/ha", "result": 4.0},
      {"measurement": "Postemergence herbicidal rating, GLXMAW", "setting": "[6]; rate 0.0320 kg/ha", "result": 5.0},
      {"measurement": "Postemergence herbicidal rating, GLXMAW", "setting": "[6]; rate 0.0620 kg/ha", "result": 5.0},
      {"measurement": "Postemergence herbicidal rating, ORYSAT", "setting": "ORYSAT (Rice, Tebonnet) [7]; rate 0.0320 kg/ha", "result": 1.5},
      {"measurement": "Postemergence herbicidal rating, ORYSAT", "setting": "ORYSAT (Rice, Tebonnet) [7]; rate 0.0620 kg/ha", "result": 2.0},
      {"measurement": "Preemergence herbicidal rating ABUTH", "setting": "[8]; Rate 0.0620 kg/ha", "result": 1.0},
      {"measurement": "ABUTH preemergence herbicidal rating", "setting": "[8]; Rate 0.1250 kg/ha", "result": 1.0},
      {"measurement": "ABUTH preemergence herbicidal rating", "setting": "[8]; Rate 0.2500 kg/ha", "result": 9.0},
      {"measurement": "Preemergence herbicidal rating AMBEL", "setting": "[9]; Rate 0.0620 kg/ha", "result": 0.0},
      {"measurement": "AMBEL preemergence herbicidal rating", "setting": "[9]; Rate 0.1250 kg/ha", "result": 0.0},
      {"measurement": "AMBEL preemergence herbicidal rating", "setting": "[9]; Rate 0.2500 kg/ha", "result": 0.0},
      {"measurement": "CASOB preemergence herbicidal rating", "setting": "[10]; Rate 0.1250 kg/ha", "result": 0.0},
      {"measurement": "CASOB preemergence herbicidal rating", "setting": "[10]; Rate 0.2500 kg/ha", "result": 0.0},
      {"measurement": "Preemergence herbicidal rating CHEAL", "setting": "[11]; Rate 0.0620 kg/ha", "result": 5.0},
      {"measurement": "CHEAL preemergence herbicidal rating", "setting": "[11]; Rate 0.1250 kg/ha", "result": 9.0},
      {"measurement": "CHEAL preemergence herbicidal rating", "setting": "[11]; Rate 0.2500 kg/ha", "result": 9.0},
      {"measurement": "Preemergence herbicidal rating IPOHE", "setting": "[12]; Rate 0.0620 kg/ha", "result": 0.0},
      {"measurement": "IPOHE preemergence herbicidal rating", "setting": "[12]; Rate 0.1250 kg/ha", "result": 0.0},
      {"measurement": "IPOHE preemergence herbicidal rating", "setting": "[12]; Rate 0.2500 kg/ha", "result": 1.0},
      {"measurement": "Preemergence herbicidal rating ECHCG", "setting": "[13]; Rate 0.0620 kg/ha", "result": 0.0},
      {"measurement": "ECHCG preemergence herbicidal rating", "setting": "[13]; Rate 0.1250 kg/ha", "result": 0.0},
      {"measurement": "ECHCG preemergence herbicidal rating", "setting": "[13]; Rate 0.2500 kg/ha", "result": 0.0},
      {"measurement": "Preemergence herbicidal rating SETVI", "setting": "SETVI (Setaria viridis); Rate 0.0620 kg/ha", "result": 0.0},
      {"measurement": "SETVI preemergence herbicidal rating", "setting": "SETVI (Setaria viridis); Rate 0.1250 kg/ha", "result": 1.0},
      {"measurement": "SETVI preemergence herbicidal rating", "setting": "SETVI (Setaria viridis); Rate 0.2500 kg/ha", "result": 6.0},
      {"measurement": "Preemergence herbicidal rating GLXMAW", "setting": "[14]; Rate 0.0620 kg/ha", "result": 0.0},
      {"measurement": "GLXMAW preemergence herbicidal rating", "setting": "[14]; Rate 0.1250 kg/ha", "result": 1.0},
      {"measurement": "GLXMAW preemergence herbicidal rating", "setting": "[14]; Rate 0.2500 kg/ha", "result": 1.0},
      {"measurement": "Preemergence herbicidal rating TRZAWR", "setting": "[15]; Rate 0.0620 kg/ha", "result": 0.0},
      {"measurement": "TRZAWR preemergence herbicidal rating", "setting": "[15]; Rate 0.1250 kg/ha", "result": 0.0},
      {"measurement": "TRZAWR preemergence herbicidal rating", "setting": "[15]; Rate 0.2500 kg/ha", "result": 1.0},
      {"measurement": "Preemergence herbicidal rating ZEAMX", "setting": "ZEAMX (Corn, Field); Rate 0.0620 kg/ha", "result": 0.0},
      {"measurement": "ZEAMX preemergence herbicidal rating", "setting": "ZEAMX (Corn, Field); Rate 0.1250 kg/ha", "result": 0.0},
      {"measurement": "ZEAMX preemergence herbicidal rating", "setting": "ZEAMX (Corn, Field); Rate 0.2500 kg/ha", "result": 1.0},
      {"measurement": "herbicidal rating, CYPIR", "setting": "CYPIR (Cyperus iria); rate 0.0320 kg/ha", "result": 5.0},
      {"measurement": "herbicidal rating, CYPIR", "setting": "CYPIR (Cyperus iria); rate 0.1250 kg/ha", "result": 5.0},
      {"measurement": "herbicidal rating, MOOVA", "setting": "[16]; rate 0.0320 kg/ha", "result": 9.0},
      {"measurement": "herbicidal rating, MOOVA", "setting": "[16]; rate 0.1250 kg/ha", "result": 9.0},
      {"measurement": "herbicidal rating, ORYSAT (rice tolerance)", "setting": "ORYSAT (Rice, Tebonnet) [17]; rate 0.0320 kg/ha", "result": 0.0},
      {"measurement": "herbicidal rating, ORYSAT (rice tolerance)", "setting": "ORYSAT (Rice, Tebonnet) [17]; rate 0.1250 kg/ha", "result": 4.0}
    ]}
  ]
}
